Columns and labels:
[1] = test system: DC; experiment: Viability of analog-pulsed DC co-cultured with iNKT cells (propidium iodide); assay type: cell-based, human; conditions: at concentration of maximal DC maturation
Description: (§1) Different analogs of α-GalCer as indicated or LPS were added to co-cultures of human DC and iNKT cells. (A) Maturation of the DC was assessed after 40 h, gating on CD11c positive cells. Histograms indicate the CD83 and CD86 profiles of DC from different treatments; the percentages indicate the percentage of CD83hi mature DC and the numbers in parenthesis, the mean fluorescence intensity of the population contained within the labeled gate. DC and iNKT cells were co-cultured in the presence of different analogs of α-GalCer for 24 hours. Supernatants were analyzed using ELISA for the presence of (B) IL-12p40 released by the DC and (C) IFN-γ from the iNKT cells. All the compounds tested induced weaker but significant cytokine production than α-GalCer, with the exception of arabinitolceramide. (D) Titration of α-GalCer, OCH or threitolceramide on DCs and co-culture with iNKT cells induces DC maturation in vitro. Cells were co-cultured in the presence of the indicated concentration of analog and the percentages of DC with increased CD83/CD80 are shown. […] Viability of α-GalCer or analog-pulsed DC was assessed after 40 h co-culture in the presence of iNKT cells by flow cytometry. Cells were stained with propidium iodide and the percentage of live CD11c gated cells remaining in the culture are shown.
(§2) To compare the functions of high affinity α-GalCer, intermediate affinity threitolceramide with the known, low affinity analog OCH, the three compounds were titrated onto DC and used to present to iNKT cells. Maturation of DC and DC viability were examined after 48 h.

[2] = test system: IL-12 p70 protein; experiment: Example F: IL-12 p70 in tail blood six hours after injection (ELISA); assay type: in vivo; conditions: 1 μg or 10 μg
Description: These experiments were performed to determine the effect of selected compounds of the invention in stimulating the production of IL-12 production in subject animals. The animals received 1 μg or 10 μg of threitol, glycerol or Gal-Cer. One group of animals also received 50 μg of MPL. Six hours following injection, tail blood samples were collected and the IL-12 p70 protein was determined using an ELISA all in accordance with standard procedures.

[3] = test system: antigen-specific CD8^+ T cells; experiment: OVA-specific CD8+ T cells after co-injection with OVA ([…]-Kb tetramer); assay type: in vivo, C57BL/6 mice; conditions: 1 μg with 800 μg OVA, 6 days
Description: (A) C57BL/6 mice were co-injected with 1 μg α-GalCer or analog and 800 μg OVA. 6 days later blood samples taken from the tail vein were stained directly ex vivo with fluorescent […]-K^b tetramers and an anti-CD8 antibody and analyzed by flow cytometry. Data are shown as tetramer positive cells as a percentage of CD8^+ cells. (B) 7 days after injection, the mice were challenged in a prophylactic setting with 1×10^6 E.G7-OVA tumour cells s.c. and the size of the tumour monitored over subsequent days.
Previously we, and others have shown that co-injection of model antigens such as OVA (Silk, Hermans et al, J Clin Invest, 2004, 114; 1800-11, Fujii, Shimizu et al, J Exp Med, 2003, 198; 267-79, Hermans, Silk et al, J Immunol, 2003, 171; 5140-7) and β-galactosidase (Silk, Hermans et al, J Clin Invest, 2004, 114; 1800-11) together with α-GalCer induces enhanced CD8^+, CD4^+ T cell and B cell responses. These were effective for therapy against tumour cells expressing the target antigen. The various analogs were co-injected with OVA into wild type mice and 6 days later the blood examined for the presence of antigen-specific CD8^+ T cells using fluorescent K^b-[…] tetramers.

[4] = test system: iNKT cell clone; experiment: Cytokine release from iNKT cell clone stimulated with analog-pulsed C1R-human CD1d cells; assay type: cell-based
Description: FIG. 9 Inositol-based α-GalCer derivatives are functional in vitro. Human monocyte-derived DC were pulsed with 150 ng of different inositol analogs and co-cultured with iNKT cells for 24 h. […] Numbers indicate the mean fluorescence intensity of the histogram gated on CD11c^+ cells. 6-Deoxy and 6-Sulfono-myo-inositolceramide induce significant (B) IL-12p40 and (C) IFN-γ production by DC and iNKT cells respectively in the supernatants of co-cultured DC and iNKT cells. […] Release of (D) IFN-g and (E) IL-4 from iNKT cells after 24 h in culture with C1R-human CD1d cells pulsed with α-GalCer, 6-Deoxy- or 6-Sulfono-myo-inositolceramide.
The three inositol compounds were titrated on C1R cells expressing human CD1d and used to stimulate an iNKT cell clone.

[5] = biological target: human CD1d (Homo sapiens, UniProt P15813); conditions: acyl and sphingosine chains in A′ and C′ pockets; cited from earlier work
human CD1d, sequence (P15813 20-301 limits assumed): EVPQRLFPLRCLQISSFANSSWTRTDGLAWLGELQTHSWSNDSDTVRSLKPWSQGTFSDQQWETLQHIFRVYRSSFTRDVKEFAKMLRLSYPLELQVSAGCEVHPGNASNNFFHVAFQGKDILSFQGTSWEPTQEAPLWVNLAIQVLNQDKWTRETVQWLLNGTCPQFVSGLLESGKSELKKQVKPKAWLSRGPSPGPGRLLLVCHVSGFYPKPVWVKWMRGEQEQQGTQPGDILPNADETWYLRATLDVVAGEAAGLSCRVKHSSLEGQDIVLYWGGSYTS
human CD1d, sequence (P61769 21-119 partner): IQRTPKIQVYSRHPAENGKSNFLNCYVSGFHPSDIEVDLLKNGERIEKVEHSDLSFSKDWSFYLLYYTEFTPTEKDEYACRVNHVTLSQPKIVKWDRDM

[6] = Viability of analog-pulsed DC co-cultured with iNKT cells (propidium iodide); assay type: cell-based, human; conditions: human; at concentration of maximal DC maturation; read-out: DC still viable
Description: as §1, §2

[7] = test system: OVA-specific IgGs; experiment: OVA-specific IgG in serum after co-administration with OVA (ELISA, FIG. 7B); assay type: in vivo, mice; conditions: 1 μg with 400 μg OVA, bled 11-14d
Description: (A) C57BL/6 or iNKT^−/− mice were injected i.v. with 1 μg of vehicle, α-GalCer, analog or 25 μg MPL. Twenty hours after injection splenocytes were stained with antibodies against B220 and CD86 and analyzed by flow cytometry. Maturation was assessed by the upregulation of CD86 at the cell surface, gating on B cells (B220^+). Mean fluorescence intensity for each histogram is indicated. […] Mice were bled 11-14d after administration and the serum tested by ELISA for antibodies. Briefly, ELISA plates were coated with 10 μg/ml OVA and then serial dilutions of sera added and incubated overnight at 4° C. before detecting with an HRP-conjugated sheep anti-mouse IgG.
Non-glycolipid analogs of α-GalCer stimulate B cell maturation in the presence of iNKT cells in vivo and subsequent antibody production. (A) C57BL/6 or iNKT^−/− mice were injected i.v. with 1 μg of vehicle, α-GalCer, analog or 25 μg MPL. Twenty hours after injection splenocytes were stained with antibodies against B220 and CD86 and analyzed by flow cytometry. Maturation was assessed by the upregulation of CD86 at the cell surface, gating on B cells (B220^+) (FIG. 7 A). Mean fluorescence intensity for each histogram is indicated. […] Mice were bled 11-14d after administration and the serum tested by ELISA for antibodies (FIG. 7 B).

[8] = test system: NKT cells; conditions: cancer patients, after treatment; cited from earlier work

SMILES: CCCCCCCCCCCCCCCCCCCCCCCCCC(=O)N[C@@H](COC[C@H](O)[C@@H](O)CO)[C@H](O)[C@H](O)CCCCCCCCCCCCCC [Compound 3, Threitol Ceramide]
- DC viability (propidium iodide negative) compared with α-GalCer [1]: significantly greater proportion of DC were propidium iodide negative
- IL-12/p70 secretion [2]: Dose dependent increases in IL-12/p70 secretion
- antigen-specific CD8+ T cell response [3]: induced a significant CD8^+ T cell response after 6 days, although less potently than α-GalCer

SMILES: CCCCCCCCCCCCCCCCCCCCCCCCCC(=O)N[C@@H](CO[C@H]1OC(CO)[C@H](O)C(O)C1O)[C@H](O)[C@H](O)CCCCCCCCCCCCCC (stereo partly drawn) [α-GalCer, α galactosylceramide, reference compound]
- concentration at which IFN-γ and IL-4 approach a plateau [4]: 200 ng/mL
- shape complementarity (Sc) [5]: 0.61
- viability at 48 h, 0.8 ng/ml [6]: 10%
- OVA-specific IgGs [7]: induces significant OVA-specific IgGs
- time until NKT cells in peripheral blood fell to undetectable levels [8]: ≤ 24 h

SMILES: CCCCCCCCCCCCCCCCCCCCCCCCCC(=O)N[C@@H](COC[C@@H](O)CO)[C@H](O)[C@H](O)CCCCCCCCCCCCCC [Compound 2, Glycerol Ceramide]
- antigen-specific CD8+ T cell response [3]: did not

From patent US8039670B2, “Analogs of alpha galactosyceramide and uses thereof” (Ludwig Institute for Cancer Research, priority 2005, dated 2011)
